Like-named read-outs stand apart in the source and are kept apart here.
Assays:
CDK4 = target: T1, CDK4 (Homo sapiens, UniProt P11802); test: CDK4 percentage degradation in Calu-1 cells (immunoblotting); type: cell-based; conditions: for inhibition at 0.2 µM: read-out: CDK4 Degradation (200 nM); for inhibition at 10 µM: read-out: CDK4 Degradation (10 μM)
T1 construct: endogenous in cells; host or cells: Calu-1
Outline: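 Cultured cells were rinsed once in cold PBS and lysed in cold RIPA buffer containing protease and phosphatase inhibitors, with gentle agitation at 4° C. for 30 min. Lysates were centrifuged at 13,000 rpm for 10 min at 4° C., and protein was quantified by BCA. Samples were then separated by SDS-PAGE, detected with ECL, and the CDK4 bands quantified in Image Lab.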

cyclin D1 = test: Cyclin D1 percentage degradation in Calu-1 cells (immunoblotting); type: cell-based; conditions: 16 hours
Outline: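 Cells were rinsed once in cold PBS and lysed in cold RIPA buffer containing protease and phosphatase inhibitors, with gentle agitation at 4° C. for 30 min. Lysates were spun at 13,000 rpm for 10 min at 4° C., protein was measured by BCA, and samples were boiled in Laemmli buffer at 99° C. for 5 min before SDS-PAGE immunoblotting.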

T1 sequence (P11802 2-303 limits assumed): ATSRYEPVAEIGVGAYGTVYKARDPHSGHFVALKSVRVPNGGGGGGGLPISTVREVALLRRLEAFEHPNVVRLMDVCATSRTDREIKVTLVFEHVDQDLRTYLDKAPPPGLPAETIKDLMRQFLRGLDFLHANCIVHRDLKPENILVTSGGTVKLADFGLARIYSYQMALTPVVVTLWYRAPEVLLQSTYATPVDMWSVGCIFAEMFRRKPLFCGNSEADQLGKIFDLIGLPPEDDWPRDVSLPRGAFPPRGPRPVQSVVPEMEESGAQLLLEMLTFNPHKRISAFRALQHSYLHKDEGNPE
T1 sequence (P24385 whole entry partner): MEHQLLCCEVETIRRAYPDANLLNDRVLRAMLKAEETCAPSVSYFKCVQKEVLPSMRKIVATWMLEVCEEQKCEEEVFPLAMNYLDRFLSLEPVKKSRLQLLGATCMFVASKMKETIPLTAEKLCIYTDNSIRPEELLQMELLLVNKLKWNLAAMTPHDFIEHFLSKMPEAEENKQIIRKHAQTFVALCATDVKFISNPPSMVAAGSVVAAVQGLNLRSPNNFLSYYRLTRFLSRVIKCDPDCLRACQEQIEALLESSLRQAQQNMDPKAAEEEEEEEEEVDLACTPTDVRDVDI
T1 sequence (Q16531 2-1140 limits assumed, further chain): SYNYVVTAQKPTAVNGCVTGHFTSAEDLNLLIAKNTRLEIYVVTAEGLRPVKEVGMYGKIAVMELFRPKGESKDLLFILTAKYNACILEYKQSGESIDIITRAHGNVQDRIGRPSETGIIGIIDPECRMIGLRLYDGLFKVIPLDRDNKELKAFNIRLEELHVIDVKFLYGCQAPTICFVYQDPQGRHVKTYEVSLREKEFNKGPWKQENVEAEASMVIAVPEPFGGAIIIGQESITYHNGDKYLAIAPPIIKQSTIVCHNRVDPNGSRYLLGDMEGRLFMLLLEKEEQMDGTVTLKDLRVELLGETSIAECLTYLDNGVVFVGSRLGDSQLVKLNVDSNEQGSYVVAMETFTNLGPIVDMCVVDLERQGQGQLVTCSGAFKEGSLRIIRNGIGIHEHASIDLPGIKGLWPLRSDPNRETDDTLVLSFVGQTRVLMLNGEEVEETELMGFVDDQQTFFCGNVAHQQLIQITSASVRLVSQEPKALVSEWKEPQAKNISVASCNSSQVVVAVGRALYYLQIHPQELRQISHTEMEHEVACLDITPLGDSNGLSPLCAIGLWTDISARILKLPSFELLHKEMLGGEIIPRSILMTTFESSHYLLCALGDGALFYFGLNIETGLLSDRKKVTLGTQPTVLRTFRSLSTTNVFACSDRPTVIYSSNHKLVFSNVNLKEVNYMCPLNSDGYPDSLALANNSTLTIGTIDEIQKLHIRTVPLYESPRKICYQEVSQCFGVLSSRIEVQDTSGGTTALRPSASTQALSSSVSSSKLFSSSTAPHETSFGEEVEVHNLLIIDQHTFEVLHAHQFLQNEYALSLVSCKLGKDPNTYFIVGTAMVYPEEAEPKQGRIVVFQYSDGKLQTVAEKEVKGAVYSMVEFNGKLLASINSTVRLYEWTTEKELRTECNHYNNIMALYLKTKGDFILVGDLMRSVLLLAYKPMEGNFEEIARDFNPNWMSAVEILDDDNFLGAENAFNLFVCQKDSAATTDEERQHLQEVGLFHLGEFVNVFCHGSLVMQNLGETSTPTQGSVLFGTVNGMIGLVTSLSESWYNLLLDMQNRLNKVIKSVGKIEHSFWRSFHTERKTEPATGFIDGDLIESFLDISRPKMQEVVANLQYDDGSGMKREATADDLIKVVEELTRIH

Structure (SMILES) | inhibition at 0.2 µM (CDK4; Calu-1 cells, 200 nM, 16 hours) | CyclinD1 Degradation (200 nM) (cyclin D1) | inhibition at 0.2 µM (CDK4; Calu-1, 16 h) | inhibition at 10 µM (CDK4; Calu-1 cells, 16 hours) | CyclinD1 Degradation (10 μM) (cyclin D1)
CC(=O)c1c(C)c2cnc(Nc3ccc(N4CCN(CC(=O)NCCOCCOCCOCCNC(=O)CNc5ccc(C(=O)Nc6ncc(C)s6)c(C)c5)CC4)cn3)nc2n(C2CCCC2)c1=O [CPD-018, 4-((17-(4-(6-((6-Acetyl-8-cyclopentyl-5-methyl-7-oxo-7,8-dihydropyrido[2,3-d]pyrimidin-2-yl)amino)pyridin-3-yl)piperazin-1-yl)-2,16-dioxo-6,9,12-trioxa-3,15-diazaheptadecyl)amino)-2-methyl-N-(5-methylthiazol-2-yl)benzamide] | 30 to 50% | C (protein percentage degradation <50%, and >=30%) |  |  | 
CC(=O)c1c(C)c2cnc(Nc3ccc(N4CCN(CC(=O)NCCOCCOCCC(=O)Nc5ccccc5C(=O)Nc5cnc(C)cn5)CC4)cn3)nc2n(C2CCCC2)c1=O [CPD-054, 2-(3-(2-(2-(2-(4-(6-((6-Acetyl-8-cyclopentyl-5-methyl-7-oxo-7,8-dihydropyrido[2,3-d]pyrimidin-2-yl)amino)pyridin-3-yl)piperazin-1-yl)acetamido)ethoxy)ethoxy)propanamido)-N-(5-methylpyrazin-2-yl)benzamide] | 50 to 80% | A (protein percentage degradation >=80%) |  |  | 
CC(=O)c1c(C)c2cnc(Nc3ccc(N4CCN(CC(=O)NCCOCCOCCOCCOCCOCCNc5ccc(C(=O)Nc6nc(-c7ccccc7)c(C)s6)c(C)c5)CC4)cn3)nc2n(C2CCCC2)c1=O [CPD-034] | < 30% | D (protein percentage degradation <30%) |  |  | 
CC(=O)c1c(C)c2cnc(Nc3ccc(N4CCN(C(=O)CC(=O)Nc5ccccc5C(=O)Nc5nc(C)c(C)s5)CC4)cn3)nc2n(C2CCCC2)c1=O [CPD-158, 2-(3-(4-(6-((6-Acetyl-8-cyclopentyl-5-methyl-7-oxo-7,8-dihydropyrido[2,3-d]pyrimidin-2-yl)amino)pyridin-3-yl)piperazin-1-yl)-3-oxopropanamido)-N-(4,5-dimethylthiazol-2-yl)benzamide] |  | D (protein percentage degradation <30%) | < 30% |  | 
CNc1ccc(C(=O)Nc2ccc(C)c(C3CC3)n2)c(NCCCCCNC(=O)CN2CCN(c3ccc(Nc4ncc5c(C)c(C(C)=O)c(=O)n(C6CCCC6)c5n4)nc3)CC2)c1 [CPD-371, 2-((5-(2-(4-(6-((6-Acetyl-8-cyclopentyl-5-methyl-7-oxo-7,8-dihydropyrido[2,3-d]pyrimidin-2-yl)amino)pyridin-3-yl)piperazin-1-yl)acetamido)pentyl)amino)-N-(6-cyclopropyl-5-methylpyridin-2-yl)-4-(methylamino)benzamide] | 50 to 80% | A (protein percentage degradation >=80%) |  |  | 
CC(=O)c1c(C)c2cnc(Nc3ccc(N4CCN(CCCCCCCC(=O)Nc5ccccc5C(=O)Nc5ccc(C)cn5)CC4)cn3)nc2n(C2CCCC2)c1=O [CPD-183, 2-(8-(4-(6-((6-Acetyl-8-cyclopentyl-5-methyl-7-oxo-7,8-dihydropyrido[2,3-d]pyrimidin-2-yl)amino)pyridin-3-yl)piperazin-1-yl)octanamido)-N-(5-methylpyridin-2-yl)benzamide] |  | D (protein percentage degradation <30%) | < 30% |  | 
COc1ccc(NC(=O)c2ccccc2NC(=O)CCCCN2CCC(NC(=O)CN3CCN(c4ccc(Nc5ncc6c(C)c(C(C)=O)c(=O)n(C7CCCC7)c6n5)nc4)CC3)CC2)nn1 [CPD-346, 2-(5-(4-(2-(4-(6-((6-Acetyl-8-cyclopentyl-5-methyl-7-oxo-7,8-dihydropyrido[2,3-d]pyrimidin-2-yl)amino)pyridin-3-yl)piperazin-1-yl)acetamido)piperidin-1-yl)pentanamido)-N-(6-methoxypyridazin-3-yl)benzamide] | 50 to 80% | A (protein percentage degradation >=80%) |  |  | 
CC(=O)c1c(C)c2cnc(Nc3ccc(N4CCN(C(=O)CCCCCCC(=O)Nc5ccccc5C(=O)Nc5nc(C)c(C)s5)CC4)cn3)nc2n(C2CCCC2)c1=O [CPD-161, 2-(8-(4-(6-((6-Acetyl-8-cyclopentyl-5-methyl-7-oxo-7,8-dihydropyrido[2,3-d]pyrimidin-2-yl)amino)pyridin-3-yl)piperazin-1-yl)-8-oxooctanamido)-N-(4,5-dimethylthiazol-2-yl)benzamide] |  | D (protein percentage degradation <30%) | < 30% |  | 
CC(=O)c1c(C)c2cnc(Nc3ccc(N4CCN(CC(=O)NCCOCCOCCNc5cccc(C(=O)Nc6cc(C)n(C)n6)c5C)CC4)cn3)nc2n(C2CCCC2)c1=O [CPD-067, 3-((2-(2-(2-(2-(4-(6-((6-Acetyl-8-cyclopentyl-5-methyl-7-oxo-7,8-dihydropyrido[2,3-d]pyrimidin-2-yl)amino)pyridin-3-yl)piperazin-1-yl)acetamido)ethoxy)ethoxy)ethyl)amino)-N-(1,5-dimethyl-1H-pyrazol-3-yl)-2-methylbenzamide] | 50 to 80% | A (protein percentage degradation >=80%) |  |  | 
CC(=O)c1c(C)c2cnc(Nc3ccc(N4CCN(CC(=O)NCCCCCNC(=O)CNc5ccc(C(=O)Nc6ncc(C)s6)c(C)c5)CC4)cn3)nc2n(C2CCCC2)c1=O [CPD-015, 4-((2-((5-(2-(4-(6-((6-Acetyl-8-cyclopentyl-5-methyl-7-oxo-7,8-dihydropyrido[2,3-d]pyrimidin-2-yl)amino)pyridin-3-yl)piperazin-1-yl)acetamido)pentyl)amino)-2-oxoethyl)amino)-2-methyl-N-(5-methylthiazol-2-yl)benzamide] | < 30% | D (protein percentage degradation <30%) |  |  | 
Cc1nc(NC(=O)c2ccccc2NC(=O)CCOCCOCCOCCNC(=O)CN2CCN(c3ccc(Nc4ncc(F)c(-c5cc(F)c6nc(C)n(C(C)C)c6c5)n4)nc3)CC2)sc1C [CPD-310, N-(4,5-Dimethylthiazol-2-yl)-2-(1-(4-(6-((5-fluoro-4-(4-fluoro-1-isopropyl-2-methyl-1H-benzo[d]imidazol-6-yl)pyrimidin-2-yl)amino)pyridin-3-yl)piperazin-1-yl)-2-oxo-6,9,12-trioxa-3-azapentadecan-15-amido)benzamide] |  |  |  | < 30% | A (protein percentage degradation >= 80%)
CC(=O)c1c(C)c2cnc(Nc3ccc(N4CCN(CC(=O)NCCCCNc5cc(C)ccc5C(=O)Nc5ccc(N(C)C)nn5)CC4)cn3)nc2n(C2CCCC2)c1=O [CPD-375, 2-((4-(2-(4-(6-((6-Acetyl-8-cyclopentyl-5-methyl-7-oxo-7,8-dihydropyrido[2,3-d]pyrimidin-2-yl)amino)pyridin-3-yl)piperazin-1-yl)acetamido)butyl)amino)-N-(6-(dimethylamino)pyridazin-3-yl)-4-methylbenzamide] | 50 to 80% | A (protein percentage degradation >=80%) |  |  | 
CC(=O)c1c(C)c2cnc(Nc3ccc(N4CCN(CC(=O)NCCOCCOCCNC(=O)CNc5ccc(C(=O)Nc6ncc(C)s6)c(C)c5)CC4)cn3)nc2n(C2CCCC2)c1=O [CPD-017, 4-((14-(4-(6-((6-Acetyl-8-cyclopentyl-5-methyl-7-oxo-7,8-dihydropyrido[2,3-d]pyrimidin-2-yl)amino)pyridin-3-yl)piperazin-1-yl)-2,13-dioxo-6,9-dioxa-3,12-diazatetradecyl)amino)-2-methyl-N-(5-methylthiazol-2-yl)benzamide] | < 30% | D (protein percentage degradation <30%) |  |  | 
CC(=O)c1c(C)c2cnc(Nc3ccc(N4CCN(CC(=O)NCCOCCOCCC(=O)Nc5c(C(=O)Nc6ccc(C)cn6)ccc6[nH]ncc56)CC4)cn3)nc2n(C2CCCC2)c1=O [CPD-359] | 50 to 80% | A (protein percentage degradation >=80%) |  |  | 
CC(=O)c1c(C)c2cnc(Nc3ccc(N4CCN(CC(=O)NCCOCCOCCC(=O)Nc5ccccc5C(=O)Nc5cc(C6CC6)n(C)n5)CC4)cn3)nc2n(C2CCCC2)c1=O [CPD-079, 2-(3-(2-(2-(2-(4-(6-((6-Acetyl-8-cyclopentyl-5-methyl-7-oxo-7,8-dihydropyrido[2,3-d]pyrimidin-2-yl)amino)pyridin-3-yl)piperazin-1-yl)acetamido)ethoxy)ethoxy)propanamido)-N-(5-cyclopropyl-1-methyl-1H-pyrazol-3-yl)benzamide] | < 30% | D (protein percentage degradation <30%) |  |  | 
Cc1nc(NC(=O)c2ccccc2NC(=O)CCCCNC(=O)CN2CCN(c3ccc(Nc4ncc(F)c(-c5cc(F)c6nc(C)n(C(C)C)c6c5)n4)nc3)CC2)sc1C [CPD-303, N-(4,5-Dimethylthiazol-2-yl)-2-(5-(2-(4-(6-((5-fluoro-4-(4-fluoro-1-isopropyl-2-methyl-1H-benzo[d]imidazol-6-yl)pyrimidin-2-yl)amino)pyridin-3-yl)piperazin-1-yl)acetamido)pentanamido)benzamide] |  |  |  | < 30% | D (protein percentage degradation < 30%)
Cc1nc(NC(=O)c2ccccc2NC(=O)CCOCCOCCOCCNC(=O)CN2CCN(c3ccc(Nc4ncc5cc6n(c5n4)C4(CCCCC4)CNC6=O)nc3)CC2)sc1C [CPD-324, N-(4,5-Dimethylthiazol-2-yl)-2-(2-oxo-1-(4-(6-((6′-oxo-7′,8′-dihydro-6′H-spiro[cyclohexane-1,9′-pyrazino[1′,2′:1,5]pyrrolo[2,3-d]pyrimidin]-2′-yl)amino)pyridin-3-yl)piperazin-1-yl)-6,9,12-trioxa-3-azapentadecan-15-amido)benzamide] |  |  |  | 50 to 80% | A (protein percentage degradation >= 80%)

From US20250235543A1, “MODIFIED PROTEINS AND PROTEIN DEGRADERS” (Cullgen (Shanghai), Inc., priority 2021, published 2025)
